These results are taken from patent publication US7465549B2 (UCB, S.A., priority 2002, dated 2008).

In test [1] the target is T1, levetiracetam binding site (LBS) (Rattus norvegicus, UniProt Q02563).
T1 construct: host or cells: crude rat brain membranes (Noyer et al. 1995; Gillard et al. 2003)
As to conditions: cited from earlier work; for displacement of LEV binding: rat brain LBS.

Another test addresses T2, LBS (Rattus norvegicus, UniProt Q02563).
T2 construct: from tissue; host or cells: rat brain (crude membranes; 25 µm sections for autoradiography)
Briefly: autoradiography of [3H]ucb 30889 binding on rat brain sections. The procedure:
(§1) Binding experiments were conducted on crude rat brain membranes at 4° C. as described in Noyer et al. (Euro. J. Pharmacol. 286: 137-146 (1995)). Incubation time for equilibrium studies was 120 min. For kinetic and competition studies, [^3H]ucb 30889 (30 Ci/mmol) was used at a concentration of 1.3 nM in 0.5 ml of a Tris-HCl (pH 7.4) buffer containing 2 mM Mg^2+. Localization of the LBS in brain substructures was assessed by autoradiography on 25 μm thick slices incubated under similar conditions. Slides were then washed twice for 10 min at 4° C. in 50 mM Tris-HCl (pH 7.4) containing 0.5% BSA, dried and exposed for 3 weeks to [^3H]Hyperfilm at −20° C. Non-specific binding (NSB) was determined by the inclusion of 1 mM LEV during the incubation period.

Test [2] relates to LBS in peripheral tissues. Conditions: heart, kidneys, spleen, pancreas, adrenals, lungs and liver; radiolabel studies; cited from earlier work.
The test system of test [3] is audiogenic-susceptible mouse. As to conditions: cited from earlier work.
Test [4] addresses T1, levetiracetam binding site (LBS). Briefly: [3H]ucb 30889 binding on crude rat brain membranes (kinetics, saturation, competition).
For test [5], the system named is LBS in peripheral tissues. Briefly: radioligand binding in peripheral tissues. On the set-up: species or system rat. Conditions: 150 μg of protein/assay, 1.3 nM radioligand. The procedure: as §1
The limit of detection under the experimental conditions (150 μg of protein/assay and 1.3 nM of radioligand) was a Bmax of 200 fmol/mg protein.

The test system of a further test is COS-7. Briefly: [3H]ucb 30889 binding in cell types. On the procedure:
To identify and characterize the LBS in situ, [^3H]ucb 30889 was used to map the LBS within the brain and to study both its cellular and subcellular distribution. For rat brain autoradiography, 25 μm slices were incubated with 1.3 nM [^3H]ucb 30889 for 120 min at 4° C. in 50 mM Tris-HCl buffer (pH 7.4). Binding assays with rat brain membranes and various neuronal cell lines were performed under similar conditions. […] For photolabeling, membranes were incubated with 40 nM [^3H]ucb 30889 for 120 min at 4° C. in the same buffer, followed by irradiation with UV-light for 30 min (Fuks et al., Eur. J. Pharmacol. 478:11-19 (2003)).
In addition, a PC12 cell line subclone, PC12a, which is low in LBS, was used to establish a pool of PC 12 cells expressing hSV2A under stable antibiotic selection.

Another test concerns the target T3, hSV2B (Homo sapiens, UniProt Q7L1I2).
T3 construct: expressed in transfected cells; host or cells: COS-7, transient
Briefly: [3H]ucb 30889 binding to hSV2B in transient COS-7 system.

A further test deals with T4, hSV2C (Homo sapiens, UniProt Q496J9).
T4 construct: expressed in transfected cells; host or cells: COS-7, transient
T4 sequence (Q496J9 1-727): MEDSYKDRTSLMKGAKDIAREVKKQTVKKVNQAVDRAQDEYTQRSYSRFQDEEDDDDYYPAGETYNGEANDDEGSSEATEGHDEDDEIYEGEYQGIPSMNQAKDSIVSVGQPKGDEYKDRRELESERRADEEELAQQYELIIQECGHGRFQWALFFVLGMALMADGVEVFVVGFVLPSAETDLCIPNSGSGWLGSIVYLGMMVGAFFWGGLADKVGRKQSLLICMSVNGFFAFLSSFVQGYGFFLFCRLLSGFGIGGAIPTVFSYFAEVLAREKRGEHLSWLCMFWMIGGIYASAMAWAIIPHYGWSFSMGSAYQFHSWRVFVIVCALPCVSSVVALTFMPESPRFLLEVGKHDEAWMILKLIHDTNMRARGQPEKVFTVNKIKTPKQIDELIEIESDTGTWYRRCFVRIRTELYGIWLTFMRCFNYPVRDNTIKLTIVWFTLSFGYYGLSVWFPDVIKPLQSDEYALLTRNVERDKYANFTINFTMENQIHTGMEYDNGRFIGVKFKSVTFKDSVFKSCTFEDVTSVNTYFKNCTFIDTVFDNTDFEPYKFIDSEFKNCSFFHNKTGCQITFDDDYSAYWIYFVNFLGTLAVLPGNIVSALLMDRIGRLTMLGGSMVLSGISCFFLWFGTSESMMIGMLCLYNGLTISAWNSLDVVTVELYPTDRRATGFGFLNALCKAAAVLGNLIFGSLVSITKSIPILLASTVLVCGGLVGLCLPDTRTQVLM
As to the kind of experiment: [3H]ucb 30889 binding to hSV2C in transient COS-7 system.

Another test addresses T5, soluble SV2A (Rattus norvegicus, UniProt Q02563).
T5 construct: the soluble protein maintains its native structural conformation in n-dodecyl-β-D-maltoside; from tissue; host or cells: rat brain membranes, detergent supernatant (100,000 g)
Briefly: binding to soluble SV2A (n-dodecyl-β-D-maltoside solubilized rat brain membranes).

The target of a further test is T6, hSV2A (Homo sapiens, UniProt Q7L0J3).
T6 construct: expressed in transfected cells; host or cells: COS-7, transient, Lipofectamine 2000, pDEST 12.2 Gateway vector (CMV promoter)
As to the kind of experiment: [3H]ucb 30889 binding to hSV2A transiently expressed in COS-7 cells. Conditions: displacement of [3H]ucb 30889, COS-7 cells. (Loss of bound radioactivity is the signal in a displacement assay; it reports binding, not function.)

Like-named read-outs stand apart in the source and are kept apart here.

T1 sequence (Q02563 whole entry): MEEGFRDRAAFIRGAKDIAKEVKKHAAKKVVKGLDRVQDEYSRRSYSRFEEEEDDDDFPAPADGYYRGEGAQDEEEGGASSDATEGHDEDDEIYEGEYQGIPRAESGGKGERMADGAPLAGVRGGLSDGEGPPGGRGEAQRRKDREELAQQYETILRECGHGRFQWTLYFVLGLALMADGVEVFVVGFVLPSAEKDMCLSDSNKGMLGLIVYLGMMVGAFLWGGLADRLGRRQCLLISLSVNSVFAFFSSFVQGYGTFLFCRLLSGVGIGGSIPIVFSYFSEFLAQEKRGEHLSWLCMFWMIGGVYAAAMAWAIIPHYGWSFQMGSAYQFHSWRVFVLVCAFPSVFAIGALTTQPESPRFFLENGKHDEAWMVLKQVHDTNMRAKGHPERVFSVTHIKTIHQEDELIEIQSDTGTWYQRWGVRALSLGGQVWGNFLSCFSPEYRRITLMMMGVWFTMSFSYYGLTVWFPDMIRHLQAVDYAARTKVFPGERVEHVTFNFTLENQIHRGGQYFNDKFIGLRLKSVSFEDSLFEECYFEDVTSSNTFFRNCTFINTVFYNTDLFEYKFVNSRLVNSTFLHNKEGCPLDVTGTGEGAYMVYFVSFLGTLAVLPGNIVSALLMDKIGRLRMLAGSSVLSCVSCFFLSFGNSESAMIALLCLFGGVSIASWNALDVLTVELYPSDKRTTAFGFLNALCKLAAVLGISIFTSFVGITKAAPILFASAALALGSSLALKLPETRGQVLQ
T2 sequence (Q02563 whole entry): as above
T5 sequence (Q02563 whole entry): as above
T3 sequence (Q7L1I2 whole entry): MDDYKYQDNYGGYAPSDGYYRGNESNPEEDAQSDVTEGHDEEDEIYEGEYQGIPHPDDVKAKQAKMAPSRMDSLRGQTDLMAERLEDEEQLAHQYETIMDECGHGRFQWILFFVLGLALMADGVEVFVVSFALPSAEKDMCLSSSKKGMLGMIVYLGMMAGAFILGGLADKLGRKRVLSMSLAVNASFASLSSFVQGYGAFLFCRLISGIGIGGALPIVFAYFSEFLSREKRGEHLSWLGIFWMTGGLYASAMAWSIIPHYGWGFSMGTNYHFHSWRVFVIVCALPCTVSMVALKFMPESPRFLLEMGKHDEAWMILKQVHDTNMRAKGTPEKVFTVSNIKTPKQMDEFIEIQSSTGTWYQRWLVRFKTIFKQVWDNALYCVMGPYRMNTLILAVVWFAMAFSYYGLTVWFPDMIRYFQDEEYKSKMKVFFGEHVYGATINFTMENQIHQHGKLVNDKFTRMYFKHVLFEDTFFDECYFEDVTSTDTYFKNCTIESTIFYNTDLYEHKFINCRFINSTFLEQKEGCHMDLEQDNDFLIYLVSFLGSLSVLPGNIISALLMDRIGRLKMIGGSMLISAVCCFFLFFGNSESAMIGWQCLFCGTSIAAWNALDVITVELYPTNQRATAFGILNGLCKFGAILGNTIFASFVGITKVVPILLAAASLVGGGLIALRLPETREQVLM
T6 sequence (Q7L0J3 whole entry): as the sequence (Q02563 whole entry) above, with E53D, A62S, A71T, D144E, T154A, S440G, A482S, V572I, L634M counted along it
Method for soluble SV2A: The rat brain membranes were diluted in a solubilization buffer (Tris-HCl 20 mM pH 7.4, 0.25 M sucrose, protease inhibitors Complete Roche) containing n-dodecyl-β-D-maltoside 15 mM and incubated for two hours at 4° C. Subsequently, the solution was centrifuged at 4° C. for one hour at 100,000 g. […] The supernatants were incubated with [^3H]ucb 30889 as described.

For the compound `COc1ccc(C(=O)N2CCCC2=O)cc1` [aniracetam], the “displacement of LEV binding” value in test [1] was “displaced LEV binding”. Take `CC[C@@H](C(N)=O)N1CCCC1=O` [levetiracetam, (S)-α-ethyl-2-oxo-1-pyrrolidine acetamide]: the “inhibition of [3H]ucb 30889 binding in brain sections” value at LBS is “can be inhibited by levetiracetam at concentrations equivalent to those observed in in vitro binding”. Moreover, in [2], the “specific binding in peripheral tissues” value is “no specific binding”. In addition, the “affinity for LBS” value in [1] (radioligand [3H]LEV) is recorded as “only micromolar affinity”. For the same compound, the suppression of seizures entry in [3] is reported as “unexpected potent ability of LEV to suppress seizures”. For the compound `NC(=O)N1c2ccccc2C=Cc2ccccc21` [carbamazepine], the “displacement of LEV binding” value in test [1] is “do not displace LEV binding”.

As to `CCCC(CCC)C(=O)O` [valproate], the “displacement of LEV binding” value in [1] is listed as “do not displace LEV binding”.

With `C=CC(N)CCC(=O)O` (centres unmarked) [vigabatrin], the “displacement of LEV binding” value in test [1] was “do not displace LEV binding”.

`CC[C@@H](C(N)=O)N1CC(c2cccc(N=[N+]=[N-])c2)CC1=O` (stereo partly drawn) [ucb 30889, (2S)-2-[4-(3-azidophenyl)-2-oxopyrrolidin-1-yl]butanamide] yielded a Bmax in [4] of 5054±704 fmol/mg protein. The “specific binding in peripheral tissues” value in [5] is recorded as “could not be detected”. In addition, in the test on COS-7, the “binding to untransfected COS-7 cell line” value was “no binding above background”. Also, the “binding to hSV2B” value on hSV2B was “no binding above background”. For the same compound, the “binding to hSV2C” value on hSV2C is listed as “no binding above background”. Besides, on soluble SV2A, the “affinity for soluble SV2A compared with native membrane” value is reported as “equivalent to that exhibited by ligands to the native membrane”.

For `CC[C@@H](C(N)=O)N1CCCC1=O` [ucb L060], the “affinity to hSV2A compared with LEV” value on hSV2A is on record as “significantly less affinity”. Take `CCC1(C)CC(=O)NC1=O` (centres unmarked) [ethosuximide]: the “displacement of LEV binding” value in test [1] is given as “competed with LEV”. Turning to `O=C1NC(=O)C(c2ccccc2)(c2ccccc2)N1` [phenytoin], the “displacement of LEV binding” value in test [1] is “do not displace LEV binding”. In the case of `NS(=O)(=O)Cc1noc2ccccc12` [zonisamide], in test [1], the “displacement of LEV binding” value is listed as “do not displace LEV binding”. Turning to `Cc1ccsc1C(=CCCN1CCC[C@@H](C(=O)O)C1)c1sccc1C` [tiagabine], the “displacement of LEV binding” value in [1] is on record as “do not displace LEV binding”. As to `NC(=O)OCC(COC(N)=O)c1ccccc1` [felbamate], in test [1], the “displacement of LEV binding” value is “do not displace LEV binding”.
